Read-outs that look alike come from different tables or passages of the source.
Assays:
[1] = target: T1, interaction of ICAM-1 with the Leukointegrin CD18/CD11a (LFA-1) (Homo sapiens, UniProt P05107+P20701); test: Assay to determine inhibition of LFA-1 binding to ICAM-1 (immunopurified LFA-1 on plate-bound sICAM-1, ELISA readout)
T1 construct: endogenous in cells; sICAM-1: made in house, secreted from transfected CHO DUX cells

[2] = test system: cell bound form of LFA-1 (CD18, CD11a) with ICAM-1, SKW3 cells; test: Inhibition of SKW3 cell binding to ICAM-1 (PMA-stimulated); type: cell-based, human; details: Homo sapiens, read-out: Assay to Detect SKW3 Cells Binding to ICAM IC50
Procedure, shortened: (§1)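 Compound-treated, PMA-stimulated human T-cell line SKW3 (50 μg/mL PMA final) allowed to adhere for 2 h at 37° C to wells coated with sICAM-1 at 40 μg/mL or fibronectin at 100 μg/mL. After gentle RPMI wash, 50% inhibition concentration or range reported in μM.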

[3] = test system: cell bound fibronectin receptor (VLA4) with fibronectin, SKW3 cells; test: Inhibition of SKW3 cell binding to fibronectin (selectivity counter-assay); type: cell-based, human; details: for IC50: Homo sapiens, SKW3, values marked c: no inhibition observed up to highest dose, read-out: Assay to Detect SKW3 Cells Binding to FIBRONECTIN IC50
Procedure, shortened: as §1

[4] = test system: LFA-1 dependent aggregation of JY cells; test: JY cell homotypic aggregation assay (PMA-stimulated); type: cell-based, human; details: Homo sapiens
Procedure, shortened: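 Homotypic aggregation of EBV-transformed JY cells, stimulated by phorbol myristate acetate ([…]), scored visually over time in compound presence at 2·10^5 cells/well in serum-supplemented RPMI 1640. Result given as μM concentration or range inhibiting binding by 50%.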

[5] = test system: human MLR, peripheral blood mononuclear cells; test: Inhibition of the mixed lymphocyte reaction (MLR), tritiated thymidine uptake; type: cell-based; parameters: key: Data are reported as “+” or “−” at a given concentration (in μM); Data are reported as “+” or “−” at a given concentration (in μM)
Experimental: Assay to Determine Inhibition the Mixed Lymphocyte Reaction
As discussed above, ICAM-1 is necessary for effective cellular interactions during an immune response mediated through LFA-1-dependent cell adhesion. When lymphocytes from two unrelated individuals are cultured together, blast transformation and cell proliferation of the lymphocytes are observed. This response is known as a mixed lymphocyte reaction (MLR) and is analogous to the response of lymphocytes to the 10 addition of antigens or mitogens (Immunology: The Science of Self-Nonself Discrimination; Klein, J., Ed.; John Wiley & Sons: NY, 1982, pp 453-458).
This assay protocol is used to determine the effect of a test compound on the human MLR.
Description of Assay Protocol:
Peripheral blood is obtained from normal, healthy donors by venipuncture. The blood is collected in heparinized tubes and diluted 1:1 at room temperature with Puck's G (GIBCO) balanced salt solution (BSS). The blood mixture (20 mL) is layered over 15 mL of a Ficoll/Hypaque density gradient (Pharmacia, density=1.078, room temperature) and centrifuged at 1000·g for 20 minutes. The interface is then collected and washed 3 times in Puck's G. The cells are counted on a hemocytometer and resuspended in RPMI 1640 culture medium (GIBCO) containing 0.5% of gentamicin, 1 mM L-glutamine (GICO) and 5% heat inactivated (56° C., 30 min) human AB sera (Flow Laboratories) (hereafter referred to as RPMI-culture medium).
Stimulator cells (cells that have been treated with irradiation so that they are unable to proliferate) from a separate donor are cultured with the responder cells at the same concentration. Test compound is added to wells at various concentrations. The total volume per culture is 0.2 mL. Controls include compound vehicle alone (DMSO), responder cells alone, and stimulator cells alone. The culture plates are incubated at 37° C. in a 5% CO2-humidified air atmosphere for 5 days.
The wells are pulsed with 0.5 μCi of tritiated thymidine (^3HT) (New England Nuclear) for the last 18 h of culture. In some cases a two-way MLR can be performed. The protocol is the same except that the second donor's cells are not inactivated by irradiation.
The cells are harvested onto glass fiber filters using an automated multiple sample harvester (Skatron, Norway), and rinsed with water and methanol. The filters are oven dried and counted in Aquasol in a Beckman (LS-3801) liquid scintillation counter.
Data are reported as “+” or “−” at a given concentration (in μM).

[6] = test system: SKW3 cells
Description: MMT Assay to Determine Cytotoxicity
MTT, (3-(4,5-dimethylthiazol-2-yl)-2,5-diphenyl-2H-tetrazolium bromide), is a yellow substrate that is cleaved by cells with active mitochondria to yield a dark blue/purple formazan product. […] The amount of color is proportional to the number of viable cells. This assay system is used to assess the effect of test compounds on cell viability in vitro.
SKW3 cells, which express LFA-1, are used. Cells used in each assay were adjusted to 1.25·10^6 cells/mL and 100 μL of this stock is dispersed into each well of a 96 well, flat bottom microtiter plate. For each condition in a particular experiment, triplicate wells are set up. Serial dilutions of each test compound or vehicle alone are added to each well. Cells are incubated with compound for 4-24 h at 37° C. before cell viability is assessed. Next, 10 μL of filter sterilized MTT is added to each well. The MTT stock is made in phosphate buffered saline at a concentration of 5 mg/mL. Plates are then incubated for 1 h at 37° C., 5% CO2 atmosphere. Periodically, the plates are examined for formazan crystal development.
At the end of the incubation period, formazan crystals are dissolved by the addition of 100 μL of 0.04 N HCl in iso-propyl alcohol to each well. Each well is thoroughly mixed by repeated pipetting with a multichannel pipetter. The plates are allowed to sit at room temperature for 15-20 minutes and are then read with a spectrophotometer. Absorbance is measured at the test wavelength of 570 nm. Data are reported as the concentration range (in μM) wherein 50% of the cells are no longer viable.

[7] = values marked e approximated from incomplete dose-response curve
[8] = SKW3, values marked c: no inhibition observed up to highest dose
[9] = values marked c: no inhibition observed up to highest dose
[10] = No inh = no inhibition observed up to highest dose, exact quantification not always possible due to intrinsic toxicity

T1 sequence (P20701 26-1170): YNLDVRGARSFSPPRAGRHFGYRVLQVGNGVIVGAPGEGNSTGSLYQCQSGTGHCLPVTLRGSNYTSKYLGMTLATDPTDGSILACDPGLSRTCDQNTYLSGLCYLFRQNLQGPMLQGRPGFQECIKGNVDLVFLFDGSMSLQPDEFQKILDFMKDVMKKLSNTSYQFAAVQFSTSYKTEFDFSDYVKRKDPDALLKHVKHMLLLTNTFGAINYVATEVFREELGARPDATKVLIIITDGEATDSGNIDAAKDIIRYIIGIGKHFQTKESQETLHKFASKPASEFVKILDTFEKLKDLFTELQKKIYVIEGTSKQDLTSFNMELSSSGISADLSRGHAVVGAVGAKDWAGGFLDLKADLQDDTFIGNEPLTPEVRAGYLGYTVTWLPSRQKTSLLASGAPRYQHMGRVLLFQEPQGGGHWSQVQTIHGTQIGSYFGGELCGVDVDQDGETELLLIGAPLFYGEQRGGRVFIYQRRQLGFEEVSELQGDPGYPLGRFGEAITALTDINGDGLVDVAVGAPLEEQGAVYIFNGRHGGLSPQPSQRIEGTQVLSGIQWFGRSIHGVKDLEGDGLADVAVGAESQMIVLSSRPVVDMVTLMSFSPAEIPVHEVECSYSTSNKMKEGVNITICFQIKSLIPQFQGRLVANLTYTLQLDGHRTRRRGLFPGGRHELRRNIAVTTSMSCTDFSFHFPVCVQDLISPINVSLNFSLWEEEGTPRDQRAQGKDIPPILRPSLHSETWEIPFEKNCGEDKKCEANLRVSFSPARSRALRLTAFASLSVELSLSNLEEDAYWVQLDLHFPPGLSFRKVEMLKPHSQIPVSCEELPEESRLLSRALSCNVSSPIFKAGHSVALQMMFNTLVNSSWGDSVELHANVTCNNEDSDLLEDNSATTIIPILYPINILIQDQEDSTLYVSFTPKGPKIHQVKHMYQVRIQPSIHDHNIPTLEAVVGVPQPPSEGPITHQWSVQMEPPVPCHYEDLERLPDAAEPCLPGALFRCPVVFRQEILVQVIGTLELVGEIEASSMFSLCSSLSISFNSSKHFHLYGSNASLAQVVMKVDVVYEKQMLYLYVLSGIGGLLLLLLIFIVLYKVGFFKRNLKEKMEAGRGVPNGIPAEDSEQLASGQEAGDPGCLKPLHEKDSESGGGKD
T1 sequence (P05107 23-769): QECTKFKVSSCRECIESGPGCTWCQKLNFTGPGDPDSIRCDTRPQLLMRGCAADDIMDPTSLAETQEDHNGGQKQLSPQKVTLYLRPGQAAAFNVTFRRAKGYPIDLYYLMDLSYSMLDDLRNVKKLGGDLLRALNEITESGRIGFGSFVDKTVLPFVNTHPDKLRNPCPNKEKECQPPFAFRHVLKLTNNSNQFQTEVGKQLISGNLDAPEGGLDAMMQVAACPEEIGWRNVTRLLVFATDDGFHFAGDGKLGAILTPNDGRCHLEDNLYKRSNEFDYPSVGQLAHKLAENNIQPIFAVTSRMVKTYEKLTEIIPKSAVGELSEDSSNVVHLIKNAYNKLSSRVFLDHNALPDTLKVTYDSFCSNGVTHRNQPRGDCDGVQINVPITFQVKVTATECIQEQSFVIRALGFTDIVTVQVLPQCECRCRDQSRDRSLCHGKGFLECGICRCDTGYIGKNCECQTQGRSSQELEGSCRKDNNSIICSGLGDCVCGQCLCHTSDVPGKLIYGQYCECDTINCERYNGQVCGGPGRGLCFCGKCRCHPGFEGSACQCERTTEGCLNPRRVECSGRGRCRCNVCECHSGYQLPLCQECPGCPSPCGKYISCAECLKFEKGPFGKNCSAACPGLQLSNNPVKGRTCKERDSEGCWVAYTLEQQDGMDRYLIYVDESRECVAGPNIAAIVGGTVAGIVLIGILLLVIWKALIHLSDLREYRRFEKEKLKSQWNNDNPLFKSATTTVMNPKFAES

SMILES	Kd [1, 7] [µM]	IC50 [2, 8] [µM]	Assay to Detect SKW3 Cells Binding to FIBRONECTIN IC50 [3, 9]	IC50 [4] [µM]	Mixed Lymphocyte Reaction MLR +/− ([5]; at 50 μM)	Cellular Toxicity Assay MTT LD50 [6] [µM]	IC50 [3] [µM]	Mixed Lymphocyte Reaction MLR +/− ([5]; at 25 μM)	Kd [1] [µM]	IC50 ([2]; SKW3) [µM]	Assay to Detect SKW3 Cells Binding to FIBRONECTIN IC50 [3, 10]
CCCN1C(=O)N(c2cc(Cl)cc(Cl)c2)C(=O)[C@@]1(C)Cc1ccc(Br)cc1 [Example 98]	0.055	5 to 10	No inh^c	3	+(50)	>340	–	–	–	–	–
CN1C(=O)N(c2cc(Cl)c(Cl)c(Cl)c2)C(=O)[C@@]1(C)Cc1ccc(Br)cc1 [Example 123]	0.1	12 to 25	–	0.6	+(50)	50 to 100	> 25	–	–	–	–
C[C@H]1C(=O)N(c2cc(Cl)cc(Cl)c2)C(=O)[C@]1(C)Cc1ccc(Br)cc1 [Example 72]	0.06	20 to 40	No inh^c	1.4	–	>363	–	+(25)	–	–	–
CN1C(=O)N(c2cc(Cl)cc(Cl)c2)C(=O)C1(C)Cc1ccc(C#N)cc1 (stereo not shown) [Example 151]	0.046	5 to 10	No inh^c	0.2	–	>410	–	+(25)	–	–	–
C[C@@]1(Cc2ccc(Br)cc2)C(=O)N(c2cc(Cl)cc(Cl)c2)C(=O)N1Cc1cccc(C(=O)O)c1 [Example 229]	–	–	–	3.1	+(50)	50 to 100	–	–	0.3	6 to 13	No inh^c
CN1C(=O)N(c2cc(Cl)cc(Cl)c2)C(=O)C1Cc1ccc(Br)cc1 (stereo not shown) [Example 92]	0.12	13 to 25	No inh^c	3.1	–	63 to 125	–	+(25)	–	–	–
C[C@@]1(Cc2ccc(Br)cc2)C(=O)N(c2cc(Cl)cc(Cl)c2)C(=O)N1CCO [Example 225]	–	–	–	0.2	–	50 to 100	–	+(25)	0.63	3 to 4	No inh^c
CCCN1C(=O)N(c2cc(Cl)cc(Cl)c2)C(=O)[C@]1(C)Cc1ccc(Br)cc1 [Example 276]	–	–	–	0.5	–	375	–	+(25)	1.11	10	No inh^c
CN1C(=O)N(c2cc(Cl)cc(Cl)c2)C(=O)[C@@]1(C)Cc1ccc(-c2ccccc2)cc1 [Example 182]	0.05	3 to 6	No inh^c	0.02	–	200 to 400	–	+(25)	–	–	–
C[C@@]1(Cc2ccc(Br)cc2)C(=O)N(c2cc(Cl)cc(Cl)c2)C(=O)N1CCCCCC(=O)O [Example 226]	–	–	–	1.6	–	100	–	+(25)	0.07	3 to 6	No inh^c
CN1C(=O)N(c2cc(Cl)cc(Cl)c2)C(=O)C1(C)Cc1ccc([N+](=O)[O-])cc1 (stereo not shown) [Example 157]	0.037	5 to 10	No inh^c	0.4	–	>390	–	+(25)	–	–	–
C[C@@]1(Cc2ccc(Br)cc2)C(=O)N(c2cc(Cl)cc(Cl)c2)C(=O)N1C1CCNCC1 [Example 224]	–	–	–	3.1	–	<25	–	–	0.28	5 to 10	No inh^c
C[C@@]1(Cc2ccc(Br)cc2)C(=O)N(c2cc(Cl)cc(Cl)c2)C(=O)N1CCCCC#N [Example 256]	–	–	–	0.4	–	150 to 300	–	–	0.12	0.8 to 2	No inh^c
C[C@@]1(Cc2ccc(Br)cc2)C(=O)N(c2cc(Cl)cc(Cl)c2)C(=O)N1Cc1cccc(O)c1 [Example 245]	–	–	–	0.7	–	25 to 50	–	–	0.21	1 to 3	No inh^c
CN1C(=O)N(c2cc(Cl)c(Cl)c(Cl)c2)C(=O)C1(C)Cc1ccc(Br)cc1 (stereo not shown) [Example 159]	0.11	10 to 20	No inh^c	2	–	50 to 100	–	–	–	–	–
CN1CCC(N2C(=O)N(c3cc(Cl)cc(Cl)c3)C(=O)[C@@]2(C)Cc2ccc(Br)cc2)CC1 [Example 37]	0.16	5 to 10	–	1.6	–	<13	> 19	–	–	–	–
CN1C(=O)N(c2cc(Cl)c(F)c(Cl)c2)C(=O)[C@@]1(C)Cc1ccc(Br)cc1 [Example 124]	0.03	1.5	No inh^c	0.1	–	100 to 200	–	–	–	–	–
C[C@@]1(Cc2ccc(Br)cc2)C(=O)N(c2cc(Cl)cc(Cl)c2)C(=O)N1Cc1ccc(C(=O)O)cc1 [Example 228]	–	–	–	1.6	–	50 to 100	–	–	0.41	12 to 25	No inh^c
C[C@@]1(Cc2ccc(Br)cc2)C(=O)N(c2cc(Cl)cc(Cl)c2)C(=O)N1Cc1ccc(C(=N)N)cc1 [Example 242]	–	–	–	2.8	–	16 to 32	–	–	0.4	10 to 25	No inh^c

From USRE38132E1, “Phenylpyrrolidines, phenylimidazolidines,3-phenyl-1,3-oxizolidines and 3-phenyl-1,3-thiazolidines and their use in the treatment of inflammatory disease” (Boehringer Ingelheim Pharmaceuticals, Inc., priority 1997, dated 2003)
